27 molecules from PubChem BioAssay (NCI) can be followed below.

Holding throughout (test): DTP human tumour cell line panel, 48 h
Test [1] concerns SK-MEL-5 melanoma.
Test [2] relates to A549 NSCLC.
Test [3] relates to SNB-75 CNS.
Test [4] concerns HCT-15 colon.
The subject of test [5] is SW-620 colon.
For test [6], the system named is MCF7 breast.
In test [7] the test system is SF-268 CNS.
Test [8] has as its system SF-295 CNS.
Test [9] concerns U251 CNS.
Test [10] has as its system M14 melanoma.

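Growth conditions: 96-well plates. Treatment: test compound, 48 hours, 5 concentrations. Analysis: linear interpolation between bracketing concentrations; unreached endpoints set to highest concentration. TGI: concentration producing complete growth inhibition.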 Where only a bound is given, the exact number is not on record here.

Broadly, the TGI is the concentration giving total growth inhibition. Low values mean more potent growth arrest, high ones less potent growth arrest. For `Cc1c2cccc-2ccc2c3ccccc3n(C(=O)c3ccc(Cl)cc3)c12`, the TGI in test [1], in test [2], in test [3], in [4], in test [5] and in test [6] was > 100 µM throughout. Further, the TGI in test [7], in [8], in [9] and in test [10] was > 100 µM in each case.

In the case of `COC(=O)Nc1nc2ccc(NC(=O)c3ccc(I)cc3)cc2[nH]1`, the TGI in test [1], in test [2], in test [3], in test [4], in [5] and in [6] was > 100 µM each time. Besides, the TGI in test [7], in test [8], in [9] and in [10] was > 100 µM in each case.

Regarding `NC(N)=NC1C(O)C(O)C(O)C(N=C(N)N)C1O` (stereo unspecified), the TGI in test [1], in test [2], in [3], in [4], in [5] and in [6] was > 100 µM throughout. Besides, the TGI in test [7], in test [8], in test [9] and in test [10] was > 100 µM throughout.

On to `C=C1CC(C)(c2cccc(Nc3nc4ccccc4c4occc34)c2)OC1=O` (stereo unspecified), for which the TGI was 28.3 µM in test [1]; 46.3 µM in [2]; 18.3 µM in test [3]; 17.4 µM in test [4]; 16.4 µM in test [6]; 29.1 µM in test [7]. Also, the results for the TGI in test [8], in test [9] and in test [10] were 34.9 µM, > 100 µM and 7.26 µM, respectively.

For `O=C(c1ccc(Cl)cc1)N1CCN=C1c1cc2ccccc2c2ccccc12`, the TGI turned out to be 27.9 µM in [1]; 31 µM in [2]; 25.7 µM in [3]; 31.3 µM in test [4]; 32.2 µM in test [5]; 34.2 µM in test [6]. Moreover, the TGI was 31.9 µM in test [7], 30.5 µM in [8], 30.5 µM in test [9] and > 100 µM in [10].

Consider `O=C(Nc1nn[nH]n1)c1nc(-c2ccccc2)cc(=O)[nH]1`, for which the total growth inhibition concentration (TGI) in test [1], in test [2], in test [3], in test [4], in [5] and in test [6] was > 100 µM in each case. Besides, the TGI in test [7], in [8], in test [9] and in test [10] was > 100 µM in each case.

In the case of `CCOC(=O)CCC(C(=O)OCC)n1nnc2cc(Nc3c(C)[n+]([O-])c4cc(F)c(OCC)cc4[n+]3[O-])ccc21` (stereo unspecified), the TGI in test [1] is > 100 µM; in test [2] it was > 100 µM; in test [3], 57.2 µM; in test [4], > 100 µM; in [5], > 100 µM; in test [6], > 100 µM. Moreover, the TGI in test [7] is 94.9 µM; in test [8], > 100 µM; in test [9], > 100 µM; in [10] it was > 100 µM.

With `S=C1SC(=Nc2ccccc2)C(=Nc2ccccc2)N1c1ccc2ccccc2c1`, the TGI in test [1], in test [3], in test [4], in [6], in test [8] and in test [9] was > 100 µM throughout. The TGI in [10] was > 100 µM.

On to `CC(CNC(N)=O)NC(N)=O` (stereo unspecified), for which the TGI in [1], in test [2], in [3], in test [4], in [5] and in [6] was > 100 µM in each case. For the same molecule, the TGI in test [7], in test [8], in test [9] and in test [10] was > 100 µM each time.

Regarding `CC1(C)CC[C@]2(C(=O)O)CC[C@]3(C)[C@H](C(=O)C=C4[C@@]5(C)C=C(C#N)C(=O)C(C)(C)[C@@H]5CC[C@]43C)[C@@H]2C1`, the TGI in test [1] turned out to be 1.69 µM; in test [2] it was 5.86 µM; in test [3] it was 2.84 µM; in test [4], 1.7 µM; in test [5] it was 2.42 µM; in test [6] it was 5.14 µM. Moreover, the TGI was found to be 7.78 µM in test [7], 1.97 µM in test [8], 3.01 µM in test [9] and 4.32 µM in test [10].

In the case of `O=C1NC(Cc2ccc(O)cc2)C(=O)NC1Cc1ccc(O)cc1` (stereo unspecified), the TGI in test [1], in [2], in [3], in test [4], in test [5] and in test [6] was > 100 µM in each case. The TGI in test [7], in test [8], in [9] and in test [10] was > 100 µM in each case.

As to `CCCCCCCCC#CCCCCCCCCCC[C@@H]1C(=O)O[C@H](C)[C@@H]1O` (tested in a mixture with another compound), the TGI in test [1] is 26.8 µM; in [2] it was 28.6 µM; in [3] it was 52.4 µM; in test [4], > 100 µM; in test [5], 36.4 µM; in test [6], 50.5 µM. Moreover, the TGI in test [7] was 30.4 µM; in [8] it was 65.4 µM; in test [9], > 100 µM; in test [10], 41 µM.

For the molecule `CC(C)CCOC(=O)NC(Nc1ccc(F)cc1)(C(F)(F)F)C(F)(F)F`, the TGI in [1], in test [2], in test [3], in [4], in test [5] and in test [6] was > 100 µM each time. In addition, the TGI in test [7], in [8], in test [9] and in [10] was > 100 µM each time.

Turning to `COc1cc2nc(-c3cccs3)nc(Nc3cccc(Cl)c3)c2cc1OC`, the TGI in test [1], in test [2], in test [3], in test [4], in [5] and in test [6] was > 100 µM throughout. Besides, the TGI in [7] is > 100 µM; in [8] it was 69.2 µM; in test [9], > 100 µM; in test [10] it was > 100 µM.

As to `Cc1c([C@H](C)[C@@H]2NC[C@@H](C)C[C@H]2O)ccc2c1C[C@H]1[C@H]2CC=C2C[C@@H](O)CC[C@@]21C`, the TGI is 22.9 µM in test [1]; 47.9 µM in [2]; 51.7 µM in [3]; 57 µM in test [4]; > 100 µM in test [5]; 31.5 µM in test [6]. Besides, the TGI in test [7] is > 100 µM; in test [8] it was 40.8 µM; in test [9], 30.3 µM; in test [10] it was 31.4 µM.

Regarding `O=C(OCc1ccccc1)N1CCNCCNCCN(C(=O)OCc2ccccc2)CCNCC1`, the TGI in test [1] is 27.1 µM; in test [2] it was > 100 µM; in [3] it was 53 µM; in test [4], 50.1 µM; in test [5] it was 32.8 µM; in test [6], 32 µM. For the same molecule, the values for the TGI in [8], in test [9] and in test [10] were 33.7 µM, 33.7 µM and 30.4 µM, respectively.

As for `CC(=O)OCC1OC(n2c(C)c(C)c(C)c(C#N)c2=S)C(OC(C)=O)C(OC(C)=O)C1OC(C)=O` (stereo unspecified), the TGI in test [1], in [2], in test [3], in test [4], in test [5] and in test [6] was > 100 µM each time. For the same molecule, the TGI is > 100 µM in test [7], 61.4 µM in test [8], > 100 µM in test [9] and > 100 µM in test [10].

Consider `COc1cc(Oc2nc3cc(F)c(F)cc3nc2-c2ccccc2)cc(OC)c1OC`, for which the TGI was 75.3 µM in test [1]; > 100 µM in test [2]; 51.2 µM in [3]; > 100 µM in test [4]; > 100 µM in test [5]; > 100 µM in [6]. The TGI in [7], in [8], in [9] and in [10] was > 100 µM each time.

With `COc1ccc2cc(C(C)C(=O)N3C(=O)OCC3(C)C)ccc2c1` (stereo unspecified), the TGI in test [1], in test [2], in test [3], in [4], in test [5] and in test [6] was > 100 µM each time. In addition, the TGI in test [7], in test [8], in test [9] and in test [10] was > 100 µM in each case.

Regarding `CC(C)(C)OC(=O)c1ccc(NCC2=C(Br)C(=O)C=CC2=O)cc1`, the TGI in test [1] is 41.6 µM; in test [2], > 100 µM; in [3] it was > 83.3 µM; in test [4], 32 µM; in [5], 34.9 µM; in test [6] it was 48.4 µM. Moreover, the TGI is > 67.8 µM in [7], > 100 µM in test [8], > 66.6 µM in [9] and 85.4 µM in test [10].

Turning to `CC(=O)C(C)(C)CCC(C)(C)C(C)=O`, the TGI in test [1], in test [2], in test [3], in test [4], in test [5] and in test [6] was > 100 µM each time. The TGI in test [7], in test [8], in test [9] and in test [10] was > 100 µM in each case.

`COC1=CC(=O)N(C)C(O)C1(C#N)OC1OC(CO)C(O)C(O)C1O` (stereo unspecified): the TGI in [1], in [2], in test [3], in [4], in test [5] and in [6] was > 100 µM in each case. In addition, the TGI in test [7], in [8], in [9] and in test [10] was > 100 µM throughout.

For `O=c1[nH]nc(Cc2ccc(Cl)cc2)n1/N=C/c1ccc([N+](=O)[O-])o1`, the TGI in test [1] was > 38.5 µM; in [2], > 35.4 µM; in test [3] it was 31.1 µM; in [4], 11.5 µM; in [5], > 21.6 µM; in test [6], > 36.8 µM. Also, the TGI in [7] is 7.93 µM; in test [8], 16.2 µM; in test [9], > 34.4 µM; in [10], 5.68 µM.

For `CC1CCC2(OC1)OC1C(O)C3C4CCC5CC(OC6OC(CO)C(OC7OC(CO)C(O)C(OC8OCC(O)C(O)C8O)C7OC7OC(CO)C(O)C(OC8OC(CO)C(O)C(O)C8O)C7O)C(O)C6O)C(O)CC5(C)C4CCC3(C)C1C2C` (stereo unspecified), the TGI in test [1] came out at 15.9 µM; in test [2] it was 4.32 µM; in test [3], 7.76 µM; in [4], 12.2 µM; in [5] it was 98.4 µM; in [6] it was 4.78 µM. The TGI in [7] amounted to 4.85 µM; in test [8] it was 3.66 µM; in test [9], 10.2 µM; in test [10], 24.9 µM.

Take `C#CCOC(=O)c1ccc(OC(C)=O)cc1`: the TGI in [1], in [3], in test [4], in test [5], in [6] and in test [7] was > 100 µM throughout. Also, the TGI in test [8], in test [9] and in [10] was > 100 µM each time.

Take `CC1(C)C=C(/C=N/Nc2ccccc2)C(C#N)=C(O)C1(C#N)C#N`: the TGI in [1], in [2], in test [3], in test [5], in test [6] and in [7] was > 100 µM in each case. For the same molecule, the TGI in test [8] and in test [10] was > 100 µM throughout.

For the molecule `CCN(CC)C(=O)CCN1CC1`, the TGI in test [1], in test [2], in test [3], in [4], in test [6] and in [7] was > 10 µM throughout. The TGI in [8], in test [9] and in test [10] was > 10 µM in each case.
